Common to all, as to format: functional
For experiment [1], the species on record is Oryctolagus cuniculus. The experiment can be described thus: Compound was tested for dose-related reduction of the mean blood pressure on boluses of different dose of 2 mg via ear vein; value ranges from 0 to -20.
The species named for experiment [2] is Oryctolagus cuniculus. Put plainly: Compound was tested for dose-related reduction of the mean blood pressure on boluses of different dose of 1 mg via ear vein; value ranges from 0 to -20.
The species named for experiment [3] is Oryctolagus cuniculus. The experiment can be described thus: Compound was tested for dose-related reduction of the mean blood pressure on boluses of different dose of 0.2 mg via ear vein; value ranges from -40 to -60.
The species named for experiment [4] is Oryctolagus cuniculus. The experiment can be described thus: Compound was tested for dose-related reduction of the mean blood pressure on boluses of different dose of 0.05 mg via ear vein; value ranges from -20 to -40.
For experiment [5], the species on record is Oryctolagus cuniculus. The experiment can be described thus: Compound was tested for dose-related reduction of the mean blood pressure on boluses of different dose of 0.1 mg via ear vein.
The subject of experiment [6] is Oryctolagus cuniculus. The experiment can be described thus: Compound was tested for dose-dependent hypertensive response in infused anesthetized rabbits at 1 ug/min.
In experiment [7] the test system is Oryctolagus cuniculus. Put plainly: Compound was tested for dose-dependent hypertensive response in infused anesthetized rabbits at 2 ug/min.
Experiment [8] deals with Oryctolagus cuniculus. The experiment can be described thus: Compound was tested for dose-dependent hypertensive response in infused anesthetized rabbits at 3 ug/min.
The species entered for experiment [9] is Oryctolagus cuniculus. The experiment can be described thus: Compound was tested for dose-related reduction of the mean blood pressure on boluses of different dose of 75 mg via ear vein.
The species named for experiment [10] is Oryctolagus cuniculus. Put plainly: Compound was tested for dose-related reduction of the mean blood pressure on boluses of different dose of 150 mg via ear vein.
The species named for experiment [11] is Oryctolagus cuniculus. Put plainly: Compound was tested for dose-related reduction of the mean blood pressure on boluses of different dose of 300 mg via ear vein.
Experiment [12] deals with Oryctolagus cuniculus. The experiment can be described thus: Compound was tested for dose-dependent hypertensive response in infused anesthetized rabbits at 20 ug/min.
For experiment [13], the system named is Oryctolagus cuniculus. Put plainly: Compound was tested for dose-dependent hypertensive response in infused anesthetized rabbits at 30 ug/min.
Experiment [14] relates to Oryctolagus cuniculus. Put plainly: Compound was tested for dose-dependent hypertensive response in infused anesthetized rabbits at 10 ug/min.

Bridge positions count the residues as written; N and C are the ends. Square brackets hold non-standard residues; d marks the D form. Peptide text beside a SMILES is read from it. Sar = CNCC(=O)O

Turning to `OCc1nc2ccccc2n1Cc1ccc(-c2ccccc2C2=NC(Cc3ccccc3)N=N2)cc1` (centres undefined), the “Delta mean blood pressure” value in the experiment listed under Oryctolagus cuniculus [1] and in the experiment listed under Oryctolagus cuniculus [2] was 0 in each case.

For the molecule `CCCCc1nc(Cl)c(CO)n1Cc1ccc(-c2ccccc2-c2nnn[nH]2)cc1` [LOSARTAN], the “Delta mean blood pressure” value in the experiment filed under Oryctolagus cuniculus [3] is reported as -40; in the experiment listed under Oryctolagus cuniculus [4], -20; in the experiment listed under Oryctolagus cuniculus [5] it was -40.

Consider `CC[C@H](C)[C@H](NC(=O)[C@H](Cc1ccc(O)cc1)NC(=O)[C@@H](NC(=O)[C@H](CCCNC(=N)N)NC(=O)[C@@H](N)CC(=O)O)C(C)C)C(=O)N[C@@H](Cc1cnc[nH]1)C(=O)N1CCC[C@H]1C(=O)N[C@@H](Cc1ccccc1)C(=O)O` [ANGIOTENSIN II], for which the Response in the experiment on Oryctolagus cuniculus [6] is reported as 20%; in the experiment with Oryctolagus cuniculus [7], 20%; in the experiment with Oryctolagus cuniculus [8], 40%.

In the case of `CC[C@H](C)[C@H](NC(=O)[C@@H]1CCCN1C(=O)[C@H](Cc1c[nH]cn1)NC(=O)[C@@H]1CCCCNC(=O)CC[C@H](NC(=O)[C@H](CCCN=C(N)N)NC(=O)CNC)C(=O)N[C@@H](Cc2ccc(O)cc2)C(=O)N1)C(=O)O` (H-[Sar]REYKHPI-OH; lactam 3-5), the “Delta mean blood pressure” value is on record as 0 in the experiment filed under Oryctolagus cuniculus [9], 0 in the experiment listed under Oryctolagus cuniculus [10] and -20 in the experiment listed under Oryctolagus cuniculus [11].

Take `CNCC(=O)N[C@@H](CCCN=C(N)N)C(=O)N[C@H]1CCC(=O)NCCCC[C@@H](C(=O)N[C@@H](Cc2c[nH]cn2)C(=O)N2CCC[C@H]2C(=O)N[C@@H](Cc2ccccc2)C(=O)O)NC(=O)[C@H](Cc2ccc(O)cc2)NC1=O` (H-[Sar]REYKHPF-OH; lactam 3-5): the figures for the Response with Oryctolagus cuniculus [12], with Oryctolagus cuniculus [13] and in the experiment with Oryctolagus cuniculus [14] were 40%, 60% and 0%, respectively.

For the origin of these results see ChEMBL document CHEMBL1135334, “Design, synthesis and biological evaluation of cyclic angiotensin II analogues with 3,5 side-chain bridges. Role of C-terminal aromatic residue and ring cluster for activity and implications in the drug design of AT1 non-peptide antagonists” (2002).
